Source: ChEMBL document CHEMBL1201862, “PubChem BioAssay data set” (2004)
Activity calls are given as the source filed them.

Experiments:
HeLa = experiment: ATP-based viability loss in HeLa cells – cell-based, CellTiter-Glo luminescence, cherry-pick samples, cytotoxicity control for MITF activator project, dose response (AID 540259); format: functional; conditions: Homo sapiens
[1] = biological target: T1, Oxysterols receptor LXR-beta (Homo sapiens, UniProt P55055); format: functional, cell-based;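 also: agonist activity at LXR measured by a cell-based luminescence readout across a dose range, run as a counterscreen for daf-12 agonists; HEK293 cells with Gal4-LXR fusion and GAL4-driven luciferase reporter; potency for activation of Gal4-LXR reporter so compounds are agonists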
T1 sequence (P55055 whole entry): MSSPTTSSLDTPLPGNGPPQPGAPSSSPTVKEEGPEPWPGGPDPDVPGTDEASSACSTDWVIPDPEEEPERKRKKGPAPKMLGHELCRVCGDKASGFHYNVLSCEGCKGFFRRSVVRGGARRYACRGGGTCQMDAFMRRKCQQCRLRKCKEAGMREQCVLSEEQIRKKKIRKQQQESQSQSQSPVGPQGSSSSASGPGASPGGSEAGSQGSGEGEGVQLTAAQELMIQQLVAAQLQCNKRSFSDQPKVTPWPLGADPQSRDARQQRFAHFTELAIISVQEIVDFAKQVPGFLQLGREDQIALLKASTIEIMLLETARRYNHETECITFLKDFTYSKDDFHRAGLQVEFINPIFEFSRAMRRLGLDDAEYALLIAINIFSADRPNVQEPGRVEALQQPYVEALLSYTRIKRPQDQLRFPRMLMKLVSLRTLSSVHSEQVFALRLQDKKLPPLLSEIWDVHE

Beta-galactosidase = Beta-galactosidase (Escherichia coli, UniProt Q8VNN2); experiment: PubChem AID 485352; format: functional
[2] = biological target: T2, Type-1 angiotensin II receptor (Homo sapiens, UniProt P30556); experiment: antagonism of angiotensin II type 1 receptor – cell-based, uHTS hits, selectivity assay for APJ receptor antagonist project, dose response (AID 463214); format: functional;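 also: antagonist potency against angiotensin II stimulated AT1 response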
T2 sequence (P30556 whole entry): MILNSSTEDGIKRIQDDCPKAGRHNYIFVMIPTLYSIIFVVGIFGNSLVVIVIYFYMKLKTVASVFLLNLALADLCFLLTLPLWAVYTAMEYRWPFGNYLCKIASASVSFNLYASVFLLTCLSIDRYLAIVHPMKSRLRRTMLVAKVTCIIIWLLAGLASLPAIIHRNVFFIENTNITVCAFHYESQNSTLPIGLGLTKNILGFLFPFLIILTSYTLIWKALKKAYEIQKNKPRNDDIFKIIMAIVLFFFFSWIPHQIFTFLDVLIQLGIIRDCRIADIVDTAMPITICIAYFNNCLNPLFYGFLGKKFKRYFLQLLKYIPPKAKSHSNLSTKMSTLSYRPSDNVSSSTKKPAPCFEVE

Caspase-3 = biological target: T3, Caspase-3 (Homo sapiens, UniProt P42574); format: functional;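 also: Dose-response selectivity test against caspase-3 for candidate inhibitors of sentrin-specific proteases (SENPs)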
T3 sequence (P42574 whole entry): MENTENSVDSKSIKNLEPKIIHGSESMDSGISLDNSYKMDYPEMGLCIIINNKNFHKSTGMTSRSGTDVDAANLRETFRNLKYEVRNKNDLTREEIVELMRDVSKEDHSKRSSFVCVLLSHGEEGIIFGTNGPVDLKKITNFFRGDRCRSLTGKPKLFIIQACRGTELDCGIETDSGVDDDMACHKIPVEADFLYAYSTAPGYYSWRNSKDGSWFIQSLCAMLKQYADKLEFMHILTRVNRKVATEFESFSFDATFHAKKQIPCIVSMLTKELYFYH

[3] = biological target: T4, Sentrin-specific protease 7 (Homo sapiens, UniProt Q9BQF6); format: functional;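 also: Luminescence-based dose-response confirmation of ultra-high-throughput screening hits, measuring inhibition of SENP7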
T4 sequence (Q9BQF6 whole entry): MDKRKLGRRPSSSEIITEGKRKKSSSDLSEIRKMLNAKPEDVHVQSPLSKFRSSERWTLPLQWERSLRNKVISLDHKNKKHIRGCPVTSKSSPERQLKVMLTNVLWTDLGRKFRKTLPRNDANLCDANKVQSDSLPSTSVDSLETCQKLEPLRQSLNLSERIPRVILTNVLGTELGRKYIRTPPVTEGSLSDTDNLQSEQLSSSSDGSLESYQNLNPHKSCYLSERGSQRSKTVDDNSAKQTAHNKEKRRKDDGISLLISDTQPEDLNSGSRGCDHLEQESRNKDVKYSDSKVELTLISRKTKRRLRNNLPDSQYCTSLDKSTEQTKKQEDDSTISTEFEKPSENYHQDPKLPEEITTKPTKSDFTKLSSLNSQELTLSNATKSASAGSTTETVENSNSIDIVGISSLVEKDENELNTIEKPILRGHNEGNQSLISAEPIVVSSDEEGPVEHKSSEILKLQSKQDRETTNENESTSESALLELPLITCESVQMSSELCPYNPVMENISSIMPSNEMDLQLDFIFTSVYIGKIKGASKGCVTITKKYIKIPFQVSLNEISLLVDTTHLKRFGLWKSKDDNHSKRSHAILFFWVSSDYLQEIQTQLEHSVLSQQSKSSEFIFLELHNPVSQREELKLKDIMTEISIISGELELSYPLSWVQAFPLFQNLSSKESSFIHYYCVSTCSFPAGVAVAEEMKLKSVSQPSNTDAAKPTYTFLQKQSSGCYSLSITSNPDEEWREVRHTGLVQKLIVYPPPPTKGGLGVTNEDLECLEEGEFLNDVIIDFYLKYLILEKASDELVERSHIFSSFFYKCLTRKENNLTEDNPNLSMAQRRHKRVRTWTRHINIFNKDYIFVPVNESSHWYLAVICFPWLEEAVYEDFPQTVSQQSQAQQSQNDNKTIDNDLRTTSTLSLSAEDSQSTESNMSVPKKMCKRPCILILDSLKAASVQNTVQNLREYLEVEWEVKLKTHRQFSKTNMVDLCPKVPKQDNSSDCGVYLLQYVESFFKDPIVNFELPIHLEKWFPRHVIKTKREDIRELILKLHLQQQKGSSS

[4] = biological target: T5, Sentrin-specific protease 6 (Homo sapiens, UniProt Q9GZR1); format: functional;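 also: Luminescence-based dose-response confirmatory assay of SENP6 inhibition, following up an ultra-high-throughput screen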
T5 sequence (Q9GZR1 whole entry): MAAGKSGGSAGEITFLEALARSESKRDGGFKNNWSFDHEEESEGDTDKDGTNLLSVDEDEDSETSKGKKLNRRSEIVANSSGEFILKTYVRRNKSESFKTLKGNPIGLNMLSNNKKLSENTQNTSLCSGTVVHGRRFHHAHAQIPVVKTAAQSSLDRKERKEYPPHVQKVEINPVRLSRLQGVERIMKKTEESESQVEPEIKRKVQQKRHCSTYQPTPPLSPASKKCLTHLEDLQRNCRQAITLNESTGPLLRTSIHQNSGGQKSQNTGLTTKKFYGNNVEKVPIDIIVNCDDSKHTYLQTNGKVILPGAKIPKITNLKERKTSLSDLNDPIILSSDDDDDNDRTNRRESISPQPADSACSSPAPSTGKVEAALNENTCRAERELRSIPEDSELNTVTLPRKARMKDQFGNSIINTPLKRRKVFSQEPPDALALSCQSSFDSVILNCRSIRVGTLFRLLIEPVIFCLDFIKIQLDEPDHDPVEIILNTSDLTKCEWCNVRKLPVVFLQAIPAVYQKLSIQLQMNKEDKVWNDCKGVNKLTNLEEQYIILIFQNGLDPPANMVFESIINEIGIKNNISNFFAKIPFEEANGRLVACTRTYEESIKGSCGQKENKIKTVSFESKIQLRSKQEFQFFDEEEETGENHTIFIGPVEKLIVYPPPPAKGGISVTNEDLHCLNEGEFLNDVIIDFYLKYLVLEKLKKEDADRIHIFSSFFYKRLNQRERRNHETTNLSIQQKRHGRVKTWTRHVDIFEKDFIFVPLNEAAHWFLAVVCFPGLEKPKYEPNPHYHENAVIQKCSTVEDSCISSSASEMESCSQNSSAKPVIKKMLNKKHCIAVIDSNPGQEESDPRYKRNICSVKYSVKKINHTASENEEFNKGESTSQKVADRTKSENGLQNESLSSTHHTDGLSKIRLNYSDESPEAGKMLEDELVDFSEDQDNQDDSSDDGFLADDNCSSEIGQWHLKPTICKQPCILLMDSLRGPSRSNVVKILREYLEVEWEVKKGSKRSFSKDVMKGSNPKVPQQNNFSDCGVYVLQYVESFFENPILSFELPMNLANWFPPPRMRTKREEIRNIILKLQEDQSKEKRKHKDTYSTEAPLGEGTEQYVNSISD

[5] = biological target: T6, Sentrin-specific protease 8 (Homo sapiens, UniProt Q96LD8); format: functional;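 also: luminescence read-out of SENP8 inhibition, dose-response confirmation following an ultra-high-throughput screen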
T6 sequence (Q96LD8 whole entry): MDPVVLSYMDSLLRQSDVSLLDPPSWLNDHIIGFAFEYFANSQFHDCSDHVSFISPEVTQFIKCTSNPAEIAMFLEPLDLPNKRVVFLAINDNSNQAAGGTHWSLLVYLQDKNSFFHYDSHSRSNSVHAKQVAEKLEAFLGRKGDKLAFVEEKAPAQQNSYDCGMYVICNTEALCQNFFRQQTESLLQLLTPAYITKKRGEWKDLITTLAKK

[6] = microbe, parasite or virus in culture; format: functional; conditions: Mycobacterium tuberculosis
[7] = biological target: T7, Hepatocyte nuclear factor 4-alpha (Homo sapiens, UniProt P41235); format: functional, cell-based;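 also: biochemical luminescence-based dose-response counterscreen measuring inhibition of HNF4 dimerization, run alongside a screen for blockers of ABHD5–perilipin-5 interaction; split luciferase complementation of HNF4 fusion proteins in cell lysate measuring dimerization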
T7 sequence (P41235 whole entry): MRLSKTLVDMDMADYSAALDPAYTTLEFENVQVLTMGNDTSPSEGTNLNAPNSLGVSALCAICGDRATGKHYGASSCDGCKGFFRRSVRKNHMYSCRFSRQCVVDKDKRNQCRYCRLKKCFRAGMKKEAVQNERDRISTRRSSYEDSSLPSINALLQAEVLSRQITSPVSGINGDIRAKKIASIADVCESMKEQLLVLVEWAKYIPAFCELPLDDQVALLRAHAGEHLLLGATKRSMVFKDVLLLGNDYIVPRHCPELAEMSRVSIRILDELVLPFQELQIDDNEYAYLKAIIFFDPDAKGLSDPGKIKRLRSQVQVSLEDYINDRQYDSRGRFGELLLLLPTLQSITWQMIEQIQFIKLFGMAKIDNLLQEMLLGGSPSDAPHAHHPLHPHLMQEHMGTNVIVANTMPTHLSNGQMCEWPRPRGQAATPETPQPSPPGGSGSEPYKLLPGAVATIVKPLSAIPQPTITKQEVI

[8] = biological target: Heat shock protein HSP 90-alpha (Homo sapiens, UniProt P07900); format: functional, organism-based
[9] = biological target: T8, Heat shock factor protein 1 (Mus musculus, UniProt P38532); experiment: decrease of HSF1-responsive luciferase luminescence – cell-based, NIH3T3, dose retest, confirmation (AID 2382); format: functional;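 also: NIH3T3 fibroblasts with HSF1-driven luciferase reporter stressed by proteasome inhibitor MG132; luminescence from HSF1-driven luciferase expression after 8 hours of MG132 stress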
T8 sequence (P38532 whole entry): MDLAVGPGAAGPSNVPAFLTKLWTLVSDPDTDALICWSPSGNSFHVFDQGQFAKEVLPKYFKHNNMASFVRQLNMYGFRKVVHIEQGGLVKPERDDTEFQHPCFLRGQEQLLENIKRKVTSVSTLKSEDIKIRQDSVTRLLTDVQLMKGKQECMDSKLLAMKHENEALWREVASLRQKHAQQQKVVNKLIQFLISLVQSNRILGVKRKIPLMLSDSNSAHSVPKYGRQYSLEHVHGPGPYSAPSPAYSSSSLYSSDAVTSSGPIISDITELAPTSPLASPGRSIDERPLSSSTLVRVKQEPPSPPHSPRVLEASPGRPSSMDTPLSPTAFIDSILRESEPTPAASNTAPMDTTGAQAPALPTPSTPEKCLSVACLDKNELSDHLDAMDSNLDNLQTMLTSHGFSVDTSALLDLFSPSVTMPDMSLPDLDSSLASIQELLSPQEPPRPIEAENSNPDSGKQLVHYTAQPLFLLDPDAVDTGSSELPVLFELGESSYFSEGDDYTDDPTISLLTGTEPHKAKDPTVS

[10] = biological target: Luciferin 4-monooxygenase (Photinus pyralis, UniProt P08659); experiment: inhibition of purified Photinus pyralis luciferase – biochemical, luminescence, dose response (AID 1891)
[11] = Luminescence Cell-Based Dose Confirmation HTS to Identify Inhibitors of Platelet Dense Granule Release. [Related pubchem assays: 1663 (Primary HTS), 1678 (Summary of Project)]; format: functional
HEK293 = experiment: EBV LMP1 TES2 canonical NF-kB signalling blockers – cell-based, HEK293, luciferase, cherry-pick, dose response (AID 588343); format: functional; conditions: Homo sapiens

Chain of Luciferin 4-monooxygenase (P08659 whole entry): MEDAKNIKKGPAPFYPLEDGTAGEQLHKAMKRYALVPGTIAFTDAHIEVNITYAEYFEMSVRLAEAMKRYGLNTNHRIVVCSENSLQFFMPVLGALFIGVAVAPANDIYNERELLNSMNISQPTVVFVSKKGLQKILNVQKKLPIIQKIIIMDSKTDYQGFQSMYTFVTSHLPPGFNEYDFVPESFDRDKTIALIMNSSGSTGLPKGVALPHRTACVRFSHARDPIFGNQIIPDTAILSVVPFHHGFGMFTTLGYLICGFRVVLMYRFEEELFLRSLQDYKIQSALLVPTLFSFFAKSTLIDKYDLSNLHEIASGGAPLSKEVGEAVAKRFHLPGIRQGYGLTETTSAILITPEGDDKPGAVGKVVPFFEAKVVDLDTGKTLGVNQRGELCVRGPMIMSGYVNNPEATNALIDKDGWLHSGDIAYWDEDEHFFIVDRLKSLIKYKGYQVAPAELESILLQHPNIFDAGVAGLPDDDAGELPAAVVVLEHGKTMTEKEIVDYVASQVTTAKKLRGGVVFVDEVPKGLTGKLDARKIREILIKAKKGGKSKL
Chain of Beta-galactosidase (Q8VNN2 whole entry): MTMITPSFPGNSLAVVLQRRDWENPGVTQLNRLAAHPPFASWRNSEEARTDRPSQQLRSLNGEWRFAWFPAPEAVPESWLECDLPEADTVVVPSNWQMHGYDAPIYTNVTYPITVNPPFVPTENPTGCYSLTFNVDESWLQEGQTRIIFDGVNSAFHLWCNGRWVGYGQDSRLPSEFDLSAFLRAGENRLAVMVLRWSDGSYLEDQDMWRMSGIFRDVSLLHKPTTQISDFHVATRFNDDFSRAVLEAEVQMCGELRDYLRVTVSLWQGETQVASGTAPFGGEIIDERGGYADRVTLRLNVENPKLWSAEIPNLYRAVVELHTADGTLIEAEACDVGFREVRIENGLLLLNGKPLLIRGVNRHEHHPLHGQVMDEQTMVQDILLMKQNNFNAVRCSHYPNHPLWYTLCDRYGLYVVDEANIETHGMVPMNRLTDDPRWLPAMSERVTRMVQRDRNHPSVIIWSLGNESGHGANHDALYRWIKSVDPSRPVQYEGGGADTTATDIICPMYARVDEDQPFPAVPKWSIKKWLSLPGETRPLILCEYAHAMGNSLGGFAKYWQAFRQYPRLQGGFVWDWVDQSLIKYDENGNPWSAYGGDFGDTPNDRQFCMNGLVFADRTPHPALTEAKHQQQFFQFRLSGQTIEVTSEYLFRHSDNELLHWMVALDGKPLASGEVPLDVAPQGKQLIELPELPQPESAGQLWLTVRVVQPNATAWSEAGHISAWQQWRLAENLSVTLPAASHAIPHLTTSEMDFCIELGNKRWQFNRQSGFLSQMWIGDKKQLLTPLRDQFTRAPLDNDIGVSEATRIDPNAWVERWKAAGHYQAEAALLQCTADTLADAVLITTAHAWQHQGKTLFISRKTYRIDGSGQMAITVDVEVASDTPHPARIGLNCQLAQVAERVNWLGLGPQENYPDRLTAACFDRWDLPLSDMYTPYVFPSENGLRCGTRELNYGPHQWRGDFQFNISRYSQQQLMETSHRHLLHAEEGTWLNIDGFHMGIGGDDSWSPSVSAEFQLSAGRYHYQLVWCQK

Cc1ccn(-c2cccc(-n3ccc(C)n3)n2)n1
AC50 (HeLa): 46.9 µM (active)
EC50 [1]: > 67.6 µM (inactive)

COc1ccc(S(=O)(=O)NNc2nc(C)cc(C)n2)cc1Br
EC50 (Beta-galactosidase): > 40 µM (inactive)
IC50 [2]: > 40 µM (not active)

CCOc1cccc(-c2nc3cc(C)ccc3o2)c1
IC50 (Caspase-3): 18.2 µM (active)
IC50 [3]: 7.7 µM (active)
IC50 [4]: 15.6 µM (active)
IC50 [5]: 39.6 µM (active)

Cc1nc(-c2ccccc2)sc1C(=O)/C=C/c1ccccc1
CC50 [6]: 36.9 µM (active)
IC50 [7]: 3.43 µM (active)

Cc1ccc(S(=O)(=O)NC(=NNC(=O)c2cccc(Cl)c2)c2ccccc2)cc1
IC50 (Caspase-3): 10.3 µM (active)
IC50 [3]: 5.83 µM (active)
IC50 [4]: 13.6 µM (active)
IC50 [5]: 19.4 µM (active)

CCC1(C)N=C(c2ccc3c(c2)OCO3)CC(c2ccccc2O)N1 (stereo unspecified)
IC50 [7]: 1.87 µM (active)

Cc1ccc(C(C[N+](=O)[O-])c2c(N)n(C)c(=O)n(C)c2=O)cc1 (stereo unspecified)
AC50 [8]: 2.5 µM (active)

COc1cc2c(cc1OC)-c1cc(Nc3ccc4c(c3)OCCO4)nc(=O)n1CC2
EC50 [9]: 2.04 µM (active)
EC50 [10]: 17.4 µM (active)
EC50 [11]: 4.63 µM (active)
AC50 (HEK293): 27.3 µM (active)

Cc1ccnc(NC(=O)c2ccc(S(=O)(=O)N3CCC(C)CC3)cc2)c1
AC50 (HeLa): 128 µM (active)

CCOC(=O)CN1C(=O)S/C(=C\c2ccc(-c3cccc(C(=O)O)c3C)o2)C1=O
IC50 (Caspase-3): 45.4 µM (active)
IC50 [3]: 6.97 µM (active)
IC50 [4]: 18 µM (active)
IC50 [5]: 16.2 µM (active)

COc1ccccc1C=CC(=O)C=Cc1ccccc1OC
IC50 [7]: 6.46 µM (active)
